Earlier results, collected in patent US20100137333A1, “ANTIFUNGAL COMPOSITION AND METHODS FOR USING” (priority 2006, published 2010).

Conditions: in vivo

Row | Substance | dermal toxicity
1 | Poly(vinylpyrrolidone/1-hexadecene) [PVPH] | no demonstrable dermal toxicity
2 | poly(vinylpyrrolidone/1-eicosene) [PVPE] | no demonstrable dermal toxicity
